The supplement of paper PMC10412643

Tests used:
Conditions in all cases: CAMHB, incubation time 20 h
[1] = compound: CC(C)(O/N=C(\C(=O)N[C@@H]1C(=O)N2C(C(=O)[O-])=C(C[n+]3ccccc3)CS[C@H]12)c1csc(N)n1)C(=O)O [ceftazidime]
[2] = compound: CC(C)(O/N=C(\C(=O)N[C@@H]1C(=O)N2C(C(=O)[O-])=C(C[N+]3(CCNC(=O)c4ccc(O)c(O)c4Cl)CCCC3)CS[C@H]12)c1csc(N)n1)C(=O)O [cefiderocol]
[3] = compound: C[C@@H](O)[C@H]1C(=O)N2C(C(=O)O)=C(S[C@@H]3CN[C@H](C(=O)N(C)C)C3)[C@H](C)[C@H]12 [meropenem]

Test System	MIC ([1]; avibactam 0 µg/mL)	MIC ([1]; avibactam 8 µg/mL)	MIC ([2]; avibactam 0 µg/mL)	MIC ([2]; avibactam 8 µg/mL)	MIC ([3]; avibactam 0 µg/mL)	MIC ([3]; avibactam 8 µg/mL)
B. multivorans 131077	8 mg/L	8 mg/L	0.125 mg/L	0.125 mg/L	4 mg/L	1 mg/L
B. multivorans 134955	8 mg/L	8 mg/L	0.125 mg/L	0.125 mg/L	8 mg/L	1 mg/L
B. multivorans C5393	8 mg/L		0.25 mg/L	0.25 mg/L	16 mg/L	1 mg/L
B. multivorans F9091687	2 mg/L	2 mg/L	0.25 mg/L	0.25 mg/L	0.5 mg/L	0.5 mg/L
B. multivorans V1120157	2 mg/L	2 mg/L	0.125 mg/L	0.125 mg/L	1 mg/L	1 mg/L
B. multivorans VC9825	2 mg/L	2 mg/L	0.25 mg/L	0.125 mg/L	2 mg/L	1 mg/L
B. multivorans VC15535	32 mg/L	16 mg/L	0.5 mg/L	0.5 mg/L	16 mg/L	8 mg/L
B. multivorans VC15555	2 mg/L	2 mg/L	> 4 mg/L	> 4 mg/L	8 mg/L	4 mg/L
B. multivorans VC19694		1 mg/L	1 mg/L	1 mg/L	8 mg/L	4 mg/L
B. vietnamiensis CEP40		2 mg/L	0.125 mg/L	0.0625 mg/L	1 mg/L	1 mg/L
B. vietnamiensis VC11431	32 mg/L	2 mg/L	1 mg/L	0.125 mg/L	16 mg/L	1 mg/L
B. vietnamiensis VC18984	16 mg/L		> 4 mg/L	> 4 mg/L	8 mg/L	4 mg/L
P. aeruginosa 20NB681421	4 mg/L	4 mg/L	1 mg/L	1 mg/L	1 mg/L	0.5 mg/L
P. aeruginosa 21NE72623	16 mg/L	2 mg/L	> 4 mg/L	> 4 mg/L	0.5 mg/L	0.125 mg/L
P. aeruginosa 70	0.5 mg/L	0.5 mg/L	0.5 mg/L	0.5 mg/L	0.125 mg/L	0.125 mg/L
P. aeruginosa 71	> 128 mg/L	4 mg/L	4 mg/L	4 mg/L	32 mg/L	4 mg/L
P. aeruginosa 74	128 mg/L	2 mg/L	> 4 mg/L	> 4 mg/L	16 mg/L	2 mg/L
P. aeruginosa PA14	2 mg/L	2 mg/L	1 mg/L	1 mg/L	0.5 mg/L	0.25 mg/L
P. aeruginosa PAO1	1 mg/L	1 mg/L	1 mg/L	1 mg/L	0.5 mg/L	0.5 mg/L
S. maltophilia 03 T2510	32 mg/L	32 mg/L	1 mg/L	1 mg/L	> 64 mg/L	> 64 mg/L
S. maltophilia 04 T22674	2 mg/L	2 mg/L	0.5 mg/L	0.5 mg/L	16 mg/L	16 mg/L
S. maltophilia 05 41846	4 mg/L	4 mg/L	0.5 mg/L	0.5 mg/L	> 64 mg/L	> 64 mg/L
S. maltophilia 20NC580771	> 128 mg/L	> 128 mg/L	0.25 mg/L	0.25 mg/L	> 64 mg/L	> 64 mg/L
S. maltophilia 21NE928511	> 128 mg/L	> 128 mg/L	> 4 mg/L	> 4 mg/L	> 64 mg/L	> 64 mg/L
S. maltophilia D457	1 mg/L	1 mg/L	0.125 mg/L	0.125 mg/L	32 mg/L	32 mg/L
S. maltophilia K279a	2 mg/L	1 mg/L	0.125 mg/L	0.125 mg/L	2 mg/L	2 mg/L
